Legend:
[1] = system: TNF-α production in human PBMC (peripheral blood mononuclear cells); assay: Inhibition of TNF-alpha production in human PBMC (IGEN technology); assay type: cell-based; conditions: inhibition of LPS-stimulated TNF-α production in human PBMC; measured and/or mean; read-out: PBMC pIC50 (IGEN assay) (converted)
Protocol: Test compounds are prepared as a ca. 10 mM stock solution in DMSO and a dilution series prepared in DMSO with 8 successive 3fold dilutions, either directly from the 10 mM stock solution or from a more dilute solution in DMSO. The compound is added to assay plates using a Biomek Fx liquid handling robot.
PBMC cells (peripheral blood mononuclear cells) are prepared from heparinised human blood from normal volunteers by centrifugation on histopaque at ca. 1000 g for ca. 30 minutes. The cells are collected from the interface, washed by centrifugation (ca. 1300 g, ca. 10 minutes) and resuspended in assay buffer (RPMI 1640 containing 10% foetal calf serum, 1% L-glutamine and 1% penicillin/streptomycin) at 1×10^6 cells/ml. Ca. 50 μl (ca. 50 ul) of cells are added to microtitre wells containing ca. 0.5 or ca. 1.0 μl (ul) of an appropriately diluted compound solution. Ca. […]
The supernatant is removed and the concentrations of TNF-α are determined by electrochemiluminescence assay using the IGEN technology or by ELISA (see below).
Ca. […] 50 μl (ul) of streptavidin/biotinylated anti-TNF-α antibody mix, ca. 25 μl ruthenium tagged anti-TNF-α monoclonal and ca. 100 μl PBS containing 0.1% bovine serum albumin are added to each well and the plates are sealed and shaken for ca. 2 hours before being read on an IGEN instrument.

[2] = system: LPS-induced pulmonary neutrophilia; assay: LPS induced pulmonary neutrophilia in rats, intratracheally administered PDE4 inhibitors; assay type: in vivo; conditions: rat, intratracheal (i.t.) 2 hours prior to LPS challenge, wet suspension in saline/tween; for inhibition of the neutrophilia: dose not stated
Source text: This assay is an animal model of inflammation in the lung—specifically neutrophilia induced by lipopolysaccharide (LPS)— and allows the study of putative inhibition of such neutrophilia (anti-inflammatory effect) by intratracheally (i.t.) administered PDE4 inhibitors. The PDE4 inhibitors are preferably in dry powder or wet suspension form. I.t. administration is one model of inhaled administration, allowing topical delivery to the lung.
Animals: Male CD (Sprague Dawley Derived) rats supplied by Charles River, Raleigh, N.C., USA or Charles River, United Kingdom are housed in groups of 5 rats per cage, acclimatized after delivery for at least 5 days with bedding/nesting material regularly changed, fed on SDS diet R1 pelleted food given ad lib, and supplied with daily-changed pasteurized animal grade drinking water.
Device for wet suspension administration: This is similar to the above but a blunt dosing needle, whose forward end is slightly angled to the needle axis, is used, with a flexible plastic portex canula inserted into the needle.
Wet suspensions of the drug (aqueous) can be prepared by adding the required volume of vehicle to the drug; the vehicle used can for example be saline alone or a mixture of saline/tween (e.g. 0.2% tween 80). The wet suspension is usually sonicated for ca. 10 minutes prior to use.
Preparation, and dosing with PDE 4 inhibitor: Rats are anaesthetized by placing the animals in a sealed Perspex chamber and exposing them to a gaseous mixture of isoflurane (4.5%), nitrous oxide (3 litres.minute^−1) and oxygen (1 litre.minute^−1). Once anaesthetized, the animals are placed onto a stainless steel i.t. dosing support table. They are positioned on their back at approximately a 35° angle. A light is angled against the outside of the throat to highlight the trachea. […]
Neutrophil cell counts: The Bronchoalveolar lavage (BAL) samples are centrifuged at ca. 1300 rpm for ca. 7 minutes. […] The total cells are also counted from the resuspension. From these two counts, the total numbers of neutrophils in the BAL are determined. […]

Compound | IC50 [1] [nM] | ED50 for inhibition of neutrophilia [2] | inhibition of the neutrophilia [2]
CCc1nc2c(cnn2CC)c(NC2CCOCC2)c1CNC(=O)c1ccc(-c2ccc(C(=O)NCc3c(CC)nc4c(cnn4CC)c3NC3CCOCC3)cc2)cc1 [Example 23, N,N′-bis{[1,6-diethyl-4-(tetrahydro-2H-pyran-4-ylamino)-1H-pyrazolo[3,4-b]pyridin-5-yl]methyl}-4,4′-biphenyldicarboxamide] | ~0.0501 | about 50 micrograms/kg body weight | 
CCn1ncc2c(NC3CCOCC3)c(CNC(=O)c3cccc(-c4cccc(C(=O)NCc5c(C)nc6c(cnn6CC)c5NC5CCOCC5)c4)c3)c(C)nc21 [Example 29, N,N′-bis{[1-ethyl-6-methyl-4-(tetrahydro-2H-pyran-4-ylamino)-1H-pyrazolo[3,4-b]pyridin-5-yl]methyl}-3,3′-biphenyldicarboxamide] |  |  | about 40%
CCc1nc2c(cnn2CC)c(NC2CCOCC2)c1CNC(=O)c1ccc(C(=O)NCc2c(CC)nc3c(cnn3CC)c2NC2CCOCC2)o1 [Example 35, N,N′-bis{[1,6-diethyl-4-(tetrahydro-2H-pyran-4-ylamino)-1H-pyrazolo[3,4-b]pyridin-5-yl]methyl}-2,5furandicarboxamide] |  |  | about 43%
